# d = 2'-deoxy (DNA); r = 2'-OH (RNA)
# What was measured:
# Assay type in all cases: in vivo
# Palmer amaranth = experiment: Combinations of EPSPS, TIF and ddATPase polynucleotides then glyphosate (Example 26, Tables 12 and 13); settings: protocol 3; 29 g/acre; copy number 16; 13 DAT
# Protocol: Solutions of the polynucleotides were prepared and applied to the leaves of Palmer amaranth using the protocols described in Table 12.
# [1] = tested on: Nicotiana benthamiana phytoene desaturase; experiment: Topical oligonucleotides/polynucleotides on tobacco, PDS bleaching and chlorophyll (Example 10); settings: for bleaching of apical leaves (FIG. 14): topical treatment; for bleaching of apical leaves (FIG. 15): another assay; for Chlorophyll (day 12) / Chlorophyll (day 7): 6 spots on the apical area; for Chlorophyll (day 12): buffer control 38.4; for Chlorophyll (day 7): lower values indicate suppression of phytoene desaturase, buffer control 31.2; for Bleaching (day 5): 25 microM each; for systematically regulating (suppressing) the target gene phytoene desaturase: Table 4 treatments
# Protocol: The following procedure was used for all assays described in this example. Four-week old Nicotiana benthamiana plants were used in all assays. Plants were treated with 0.1% Silwet L-77 solution freshly made with ddH2O. Two fully expanded leaves per plant (one cotyledon, one true leaf) were dipped into the Silwet L-77 solution for a few seconds, and allowed to dry for 15-30 minutes before application of the polynucleotide composition. Final concentration for each oligonucleotide or polynucleotide was 25 microM (in 0.01% Silwet L-77, 5 mM sodium phosphate buffer, pH 6.8) unless otherwise stated. 20 microliters of the solution was applied to the top surface of each of the two pre-treated leaves to provide a total of 40 microliters (1 nmol oligonucleotide or polynucleotide) for each plant. Leaf bleaching was observed 3 days post treatment.
# FIG. 13 illustrates phenotypes observed at day 12 after treatment in another assay of the effect from twelve combinations of polynucleotides or oligonucleotides (see Table 4). Table 4 also lists observations of visible bleaching of the plants at day 5 after treatment and the results of chlorophyll measurements taken at days 7 and 12 after treatment. Chlorophyll measurements are an indication of suppression of the target gene phytoene desaturase, and measurements were taken at 6 spots on the apical area, focussing on visibly bleached leaves or (in plants without visible bleaching) on leaves in equivalent locations on the plants; lower chlorophyll measurement values indicate suppression of phytoene desaturase.
# [2] = tested on: glyphosate-resistant Palmer amaranth plants; experiment: Salts, EDTA, glycerin as additives to polynucleotide spray solutions (Example 35, Tables 26-28); settings: for enhancing the efficacy of the polynucleotides and potentiating the herbicidal activity of glyphosate: additive in the spray solution
# [3] = tested on: glyphosate-resistant Palmer amaranth containing 16 copies of EPSPS; experiment: Glyphosate counter-ions with EPSPS polynucleotides (Example 35, Table 29); settings: for Palmer control (%) / Palmer height (cm): 1682 g acid equivalent per hectare of the glyphosate salt, with or without EPSPS polynucleotides (IDT [1]-[4]) in 0.5% Silwet L-77, 2% ammonium sulfate, 16 copies of EPSPS, 21 days after treatment; for herbicidal activity compared to the potassium salt: 1682 g acid equivalent per hectare of glyphosate salt with IDT [1]-[4], 21 days after glyphosate treatment
# Source text: FIG. 38 depicts the effect of varying glyphosate counter-ions on herbicidal activity (presented as percent of weed control/kill, and as plant height) of topically applied polynucleotides (RNA) on glyphosate-resistant Palmer amaranth plants. A mixture of EPSPS polynucleotides (IDT [1] (SEQ ID NO:83-84), IDT [2] (SEQ ID NO:85-86), IDT [3] (SEQ ID NO:87-88), and IDT [4] (SEQ ID NO:89-90)) in 0.5% Silwet L-77, 2% ammonium sulfate in 10 millimolar sodium phosphate buffer, pH 6.8 with 0.2% Roundup® WeatherMax® carrier (MON56151 tallowamine surfactant blend of tallowamine (16-18C) and cocoamine (12-14C) in the ratio of 55:45) and 1682 g acid equivalent per hectare of one of the glyphosate salts; K+ glyphosate, isopropylammonium+ glyphosate or monoethanolammonium+ glyphosate at 215 liters/acre by Milli spray on 3 replicates of 4-6 inch glyphosate-resistant Palmer amaranth containing 16 copies of EPSPS. Plant height was scored at 21 days after glyphos ate treatment.
# [4] = 2% salt as additive to 1% Silwet L-77 spray solution of topically applied polynucleotides (RNA), glyphosate
# [5] = Table 26: additive to 1% Silwet L-77 spray solution of polynucleotides (RNA), glyphosate
molecule,measurement,setting,value
"IDT [3]: Palmer/EPSPS dsRNA, SEQ ID NO. 87, 88 (chain 1 GGUCGACAACUUGCUGUAUAGUGA; chain 2 AUCACUAUACAGCAAGUUGUCGACCUC; chain 1: sugars from the 5' end r23 d1, 3' dT, backbone not given here; chain 2: RNA, backbone not given here)",Results: % stunted,Palmer amaranth,51% stunted
"PDS 18-mer anti-sense ssDNA: SEQ ID NO:33 (antisense CATCTCCTTTAATTGTAC; DNA, backbone not given here)",bleaching of apical leaves (FIG. 14),[1],Little or no visible bleaching
N.N.O=S(=O)(O)O [ammonium sulfate],Palmer control (%),[2]; [4],54%
same,Palmer height (cm),[2]; [4],9.3 cm
same,Palmer height (cm),[2]; [5],1.8 cm
same,Palmer control (%),[2]; in vivo,43%
O=S(=O)([O-])[O-].[Na+].[Na+] [sodium sulfate],Palmer control (%),[2]; in vivo,7%
same,Palmer height (cm),[2]; in vivo,17.0 cm
Cl.N [ammonium chloride],Palmer control (%),[2]; [4],52%
same,Palmer height (cm),[2]; [4],10.3 cm
same,enhancing the efficacy of the polynucleotides and potentiating the herbicidal activity of glyphosate,[2],act similarly to ammonium sulfate
[Cl-].[Na+] [sodium chloride],Palmer control (%),[2]; [4],15%
same,Palmer height (cm),[2]; [4],15.0 cm
CC[N+](CC)(CC)CC.[Cl-] [tetraethylammonium chloride],Palmer control (%),[2]; [4],27%
same,Palmer height (cm),[2]; [4],12.0 cm
"PDS 21-mer sense ssDNA: SEQ ID NO:36 (sense GCAGTACAATTAAAGGAGATG; DNA, backbone not given here)",bleaching of apical leaves (FIG. 15),[1],Little or no visible bleaching
NCCO.O=C(O)CNCP(=O)(O)O [MEA + glyphosate],Palmer control (%),[3],9%
same,Palmer height (cm),[3],14.5 cm
CC(C)N.O=C(O)CNCP(=O)(O)O [IPA + glyphosate],Palmer control (%),[3],9%
same,Palmer height (cm),[3],14.5 cm
"Oligo 3 without T7 promoter: SEQ ID NOs 22, 23; PDS anti-sense 22-mer oligonucleotides without a T7 promoter (antisense 1 CATCTCCTTTAATTGTACTGCC; antisense 2 TTTAATTGTACTGCCATTATTC; listed as DNA, chemistry not given here)",Chlorophyll (day 12),[1],3.2
same,Chlorophyll (day 7),[1],11.3
same,Bleaching (day 5),[1]; 40 microliters per plant,strong
same,systematically regulating (suppressing) the target gene phytoene desaturase,[1],effective
same,bleaching of apical leaves (FIG. 15),[1],strong bleaching
same,bleaching of apical leaves (FIG. 14),[1],Strong bleaching
"OCC(O)CO [Glycerin, glycerin]",enhancing the efficacy of the polynucleotides and potentiating the herbicidal activity of glyphosate,[2],enhance the efficacy of the polynucleotides
O=C(O)CNCP(=O)([O-])O.[K+] [K + glyphosate],Palmer control (%),[3],23%
same,Palmer height (cm),[3],12.3 cm
"CC(C)N.O=C(O)CNCP(=O)(O)O [isopropylammonium+ glyphosate, reference compound]",herbicidal activity compared to the potassium salt,[3],better herbicidal activity
CCCC[P+](CCCC)(CCCC)CCCC.[Br-] [tetrabutylphosphonium bromide],enhancing the efficacy of the polynucleotides and potentiating the herbicidal activity of glyphosate,[2],act similarly to ammonium sulfate
"NCCO.O=C(O)CNCP(=O)(O)O [monoethanolammonium+ glyphosate, reference compound]",herbicidal activity compared to the potassium salt,[3],better herbicidal activity
"PDS 33-mer anti-sense ssDNA: SEQ ID NO:35 (antisense CATCTCCTTTAATTGTACTGCCATTATTCAGTA; DNA, backbone not given here)",bleaching of apical leaves (FIG. 14),[1],Strong bleaching
"O=C(O)CN(CCN(CC(=O)O)CC(=O)O)CC(=O)O [EDTA, ethylenediaminetetraacetic acid]",Palmer control (%),"[2]; Table 26: additive (2% ammonium sulfate; 0.004% EDTA) to 1% Silwet L-77 spray solution of polynucleotides (RNA), glyphosate",45%
same,Palmer height (cm),[2]; [5],1.0 cm
same,enhancing the efficacy of the polynucleotides and potentiating the herbicidal activity of glyphosate,[2],act similarly to 2% ammonium sulfate
"Oligos 1 and 2 without T7 promoter: SEQ ID NOs 18, 19 (chain 1 GCAAGAGATGTCCTAGGTGGG; chain 2 ACAGATTTCTTCAGGAGAAACATGG; DNA, backbone not given here)",Chlorophyll (day 12),[1],41.1
same,Chlorophyll (day 7),[1],32.0
same,Bleaching (day 5),[1]; 40 microliters per plant,not yet
same,systematically regulating (suppressing) the target gene phytoene desaturase,[1],did not suppress
"PDS 15-mer anti-sense ssDNA: SEQ ID NO:32 (antisense CATCTCCTTTAATTG; DNA, backbone not given here)",bleaching of apical leaves (FIG. 14),[1],Little or no visible bleaching
C[N+](C)(C)C.[Cl-] [tetramethylammonium chloride],Palmer control (%),[2]; in vivo,19%
same,Palmer height (cm),[2]; in vivo,15.0 cm
"PDS 700-mer dsRNA: dsRNA designed from nucleotides 421-1120 of SEQ ID NO:2 (nucleic acid, listed as Nicotiana benthamiana, dsRNA of this region) DNA: GCAAGAGATGTCCTAGGTGGGAAGGTAGCTGCATGGAAAGATGATGATGGAGATTGGTACGAGACTGGGTTGCACATATTCTTTGGGGCTTACCCAAATATGCAGAACCTGTTTGGAGAACTAGGGATTGATGATCGGTTGCAGTGGAAGGAACATTCAATGATATTTGCGATGCCTAACAAGCCAGGGGAGTTCAGCCGCTTTGATTTTCCTGAAGCTCTTCCTGCGCCATTAAATGGAATTTTGGCCATACTAAAGAACAACGAAATGCTTACGTGGCCCGAGAAAGTCAAATTTGCTATTGGACTCTTGCCAGCAATGCTTGGAGGGCAATCTTATGTTGAAGCTCAAGACGGTTTAAGTGTTAAGGACTGGATGAGAAAGCAAGGTGTGCCTGATAGGGTGACAGATGAGGTGTTCATTGCCATGTCAAAGGCACTTAACTTCATAAACCCTGACGAGCTTTCGATGCAGTGCATTTTGATTGCTTTGAACAGATTTCTTCAGGAGAAACATGGTTCAAAAATGGCCTTTTTAGATGGTAACCCTCCTGAGAGACTTTGCATGCCGATTGTGGAACATATTGAGTCAAAAGGTGGCCAAGTCAGACTAAACTCACGAATAAAAAAGATCGAGCTGAATGAGGATGGAAGTGTCAAATGTTTTATACTGAATAATGGCAGTACAATTAAAGGAGATG",bleaching of apical leaves (FIG. 14),[1],Strong bleaching
"200-mer dsRNA polynucleotide: dsRNA corresponding to nucleotides 914-1113 of SEQ ID NO:2 (nucleic acid, listed as Nicotiana benthamiana, complementary strand) sense: ACAGATTTCTTCAGGAGAAACATGGTTCAAAAATGGCCTTTTTAGATGGTAACCCTCCTGAGAGACTTTGCATGCCGATTGTGGAACATATTGAGTCAAAAGGTGGCCAAGTCAGACTAAACTCACGAATAAAAAAGATCGAGCTGAATGAGGATGGAAGTGTCAAATGTTTTATACTGAATAATGGCAGTACAATTAAA",Chlorophyll (day 12),[1],4.0
same,Chlorophyll (day 7),[1],11.3
same,Bleaching (day 5),[1]; 40 microliters per plant,strong
same,bleaching of apical leaves (FIG. 12A),"[1]; 200-mer dsRNA at 0.6 microM, oligonucleotides 25 microM each, 40 microliters per plant",Bleaching of apical leaves was observed
same,systematically regulating (suppressing) the target gene phytoene desaturase,[1],effective
"Oligos 1, 2, and 3 w/o T7 promoter and oligos 4, 5, & 6: SEQ ID NOs 18, 19, 22, 23, 24, 25, 26 (nucleic acid, DNA, backbone not given here) chain 1: GCAAGAGATGTCCTAGGTGGG chain 2: ACAGATTTCTTCAGGAGAAACATGG chain 3: CATCTCCTTTAATTGTACTGCC chain 4: TTTAATTGTACTGCCATTATTC chain 5: CACTTCCATCCTCATTCAGCTCGAT chain 6: ACACCTCATCTGTCACCCTATCAG chain 7: CAGTCTCGTACCAATCTCCATCAT",Chlorophyll (day 12),[1],34.4
same,Chlorophyll (day 7),[1],30.2
same,Bleaching (day 5),[1]; 40 microliters per plant,not yet
